“Also recorded” adds a separate entry of the source. Values belong to the compound of their own block, whether it stands above or below them.
Assays:
[1] = tested on: CD19+ BV173 tumor cell line; assay: Co-culture / stimulation with CD19+ BV173 tumor cells; type: cell-based, human
Method: (§1) For activation of CD19-specific CAR-T cells with the anti-idiotype Ab or CD19^+ tumor cells, anti-CAR19 and anti-CD3 Abs were serially diluted 2-fold, and coated on non-tissue culture treated 96-well plates for 16 hours. Plates were washed twice before plating T cells (2.5×10^5 cells/well). Plates were centrifuged at 1,000 g for 5 min, and incubated at 37° C. for 6 hours. Plates were then briefly spun, and 200 μl of the supernatant was collected for ELISA. Cells were collected and stained with anti-CAR19, CD4-PE, CD69-FITC Abs and Zombie Aqua™ dye (Biolegend) at 4° C. for 30 min. Samples were fixed and stored for flow cytometry analysis. For tumor cell-mediated activation, 5×10^4 BV173 tumor cells were seeded in each well of 96-well plates, and T cells were serially diluted and seeded. Six hours later, supernatant was collected for ELISA.
(§2) Cytokines in culture supernatants and plasma were measured using enzyme-linked immunosorbent assay (ELISA) or magnetic luminex assay following manufacturer's instructions (R&D Systems). Data were collected and analyzed using the Lumina-200 System and the Bio-Plex Manager 6.1 software (Bio-Rad).
For co-culture assays, CD19^+ BV173 tumor cells were seeded into 24-well plates with 5×10^5 cells/well and T cells were added at different effector to target (E:T) ratios (E:T=1:1 or 1:5). After 24 hours, supernatant was collected for ELISA. Three days later, cells were collected and stained with anti-human CD3 and CD19 Abs for flow cytometry analysis.

[2] = Humanized mouse CRS model of SHP1 heterodimerization; type: in vivo, humanized NSG mice
Text: For the humanized mouse model to evaluate the effects of SHP1 heterodimerization in CAR-T cells in vivo, humanized NSG (NOD-scid IL2Rg^null) mice (NSG-hu HSC) were generated. Briefly, human fetal liver tissues were obtained from elective or medically indicated termination of pregnancy through a non-profit intermediary working with outpatient clinics (Advanced Bioscience Resources). CD34^+ hematopoietic stem cells (HSC) were transplanted in newborn NSG mice through intra-liver injection of 2×10^5 purified HSC. Human immune cell engraftment was detected by flow cytometry 12 weeks after transplantation. Standard parameters of evaluation of CRS in humanized NSG mice was performed. Mice were infused with 5×10^6 CAR-T cells at day 0, and plasma was collected at days 1 and 2. AP21967 was administrated intraperitoneally at 10 mg/kg dose. Weight of each mouse was normalized to starting weight before CAR-T cell infusion. In a second CRS murine model, 7-10-week-old female C.B-Igh-1b/GbmsTac-Prkdc^scid-Lyst^bgN7 (SCID-beige, Taconic Biosciences) mice were injected i.p. with Raji-FFluc cells. After 21 days, mice were grouped based on the BLI (total flux). Mice were infused i.p. with 30×10^6 CAR-T cells. Weight of each mouse was normalized to starting weight before CAR-T cell infusion.

Daudi-FFLuc cells = assay: NSG xenograft lymphoma model of SHP1 heterodimerization; type: in vivo, NSG mice
Method: Animal studies were performed in accordance with the Institutional Animal Care and Use Committee of UNC. For long-term in vivo cytotoxicity, male or female NSG (NOD-scid IL2Rg^null) mice were injected intravenously (i.v.) with 2×10^6 CD19^+ Daudi tumor cell line labeled with the Firefly luciferase gene (Daudi-FFLuc). Four to seven days later, mice received T cells control or expressing CARs intravenously (i.v.). For tumor re-challenging experiments, 2×10^6 CD19^+ Daudi-FFLuc cells were i.v. injected at indicated time point. Tumor growth was monitored every 2-3 days by injecting mice intraperitoneally (i.p.) with D-luciferin (150 mg/kg, Xenolight, PerkinElmer). Photon emission was analyzed using the Xenogen-IVIS Imaging System. For short-term in vivo T cell activation, NSG mice were injected with Daudi-FFLuc cells i.v. Two weeks later, CAR19.28ζ-Ts were labeled with Cell-trace Violet (Thermo Scientific) and CAR19.BBζ-Ts were labeled with CFSE (Thermo Scientific) as per manufacturer's instructions. Cells were mixed 1:1, and a total 1×10^7 cells were i.v. injected in each mouse. Peripheral blood, bone marrow, lung and spleen were harvested 6 hours after T cell injection, dissociated into single cells and stained with anti-human CD45-PE, CD3-APC and CD69-PE-Cy7 Abs. […] Tumor growth was monitored twice a week.

CAR-CD3ζ phosphorylation = assay: Western blot of CAR-CD3ζ and proximal signaling phosphorylation; type: cell-based, human
Method: For western blot assays, protein lysate was normalized according to the amount of CAR expression and resolved on 4%-15% SDS polyacrylamide gel electrophoresis gels (SDS-PAGE, Bio-Rad). After protein transfer onto Polyvinylidene fluoride membranes (Bio-Rad), membranes were blocked in 5% non-fat milk in TBS-T and incubated with primary and secondary Abs in TBS-T with 1% milk. The following Abs were used: anti-CD3pY83 and anti-CD3pY142 (Abcam), anti-ZAP70pY319, anti-ZAP70, anti-LATpY191, anti-LAT, anti-LCK, anti-THEMIS, anti-SHP1 and anti-HA tag (Cell Signaling Technology), anti-CD3ζ, anti-FKBP, anti-β-actin (Santa Cruz), anti-FLAG (M2) (Sigma) and horseradish peroxidase conjugated secondary Abs (Goat-anti-mouse, Goat-anti-Rabbit from Thermo Scientific). Membranes were developed with SuperSignal West Femto Maximum Sensitivity Substrate (Thermo Scientific) on a Gel station (Bio-Rad).

[3] = tested on: CD69 expression and cytokine release of CAR-T cells; assay: Activation of CAR-T cells with anti-CAR19 anti-idiotype Ab (CD69 expression, cytokine release); type: cell-based, human
Method: as §1, §2

[4] = tested on: Ca2+ influx in CAR-T cells; assay: Ca2+ influx assay after anti-CAR19 Ab stimulation; type: cell-based, human; conditions: stimulated with α-CAR19 antibody; FIG. 6
Method: For Ca^2+ influx assays, T cells were incubated with Ca^2+ indicator as per manufacturer's instructions (Ca^2+ influx assay, BD Bioscience). Cells were incubated with anti-CAR19 Ab followed by goat anti-mouse secondary Ab on ice. Ca^2+ current was measured by flow cytometry for time-lapsed fluorescence change. Cells were first collected on ice as the baseline of the Ca^2+ current, and then activated at 37° C. for the Ca^2+ current during T cell activation.

[5] = transient AP21967, FIGS. 21B-21C

Weight loss ([2]; AP21967 twice on day 1, 10 mg/kg intraperitoneally, FIG. 21A): alleviated their weight loss
Release in the plasma of human GM-CSF [2, 5]: significantly reduced
Release in the plasma of human IFNγ [2, 5]: significantly reduced
Release in the plasma of human IL-6 [2, 5]: significantly reduced
Release in the plasma of human TNFα [2, 5]: significantly reduced
Compound: CO[C@H]1[C@@H](O)[C@H](C)C[C@H](C)/C=C/C=C/C=C(\C)[C@@H](c2c[nH]c3c(C)cccc23)C[C@@H]2CC[C@@H](C)[C@@](O)(O2)C(=O)C(=O)N2CCCC[C@H]2C(=O)O[C@H]([C@H](C)C[C@@H]2CC[C@@H](O)[C@H](OC)C2)C[C@H](O)[C@H](C)/C=C(\C)[C@H]1O [AP21967]
Antitumor activity in vitro ([1]; CAR19.28ζ-T cells with FKBP-SHP1, BV173 co-culture): without compromising their antitumor activity in vitro
IFNγ release / production ([1]; CAR19.28ζ.FRB-T cells with FKBP-SHP1 and BV173 at 1:5 ratio, FIGS. 17 and 18): reduces IFNγ release by CAR19.28ζ-T cells in a reversible manner; also recorded: reversible regulation of IFNγ production
Cytotoxicity ([1]; FKBP-SHP1 co-expressed, FIG. 17): controlled cytotoxicity
Therapeutic effect of CAR19.28ζ-T cells in vivo ([2]; cell counts on day 21, FIG. 21D): did not impair the therapeutic effect
IFNγ release in vivo (plasma) (Daudi-FFLuc cells; AP21967 twice on day 2, 10 mg/kg intraperitoneally, FIG. 20A): reduced IFNγ release by CAR19.28ζ-T cells co-expressing SHP1
Antitumor effects in vivo (Daudi-FFLuc cells; AP21967 twice on day 2, tumor growth days 7-39, FIG. 20B): without impairing their antitumor effects
CAR-CD3ζ phosphorylation upon antigen binding (CAR-CD3ζ phosphorylation; CAR19.28ζ.FRB-T cells co-transduced with FKBP-SHP1, 1 μM AP21967, FIG. 16): tunes down CAR-CD3ζ phosphorylation upon antigen binding
Antigen-independent CAR-CD3ζ phosphorylation of CAR19.28ζ-Ts (CAR-CD3ζ phosphorylation; FKBP-SHP1 co-expressed, FIG. 16): reduce antigen-independent CAR-CD3ζ phosphorylation

Compound: [Na+].[Na+].[Na+].[O]=[V]([O-])([O-])[O-] [Na3 VO4]
Antigen-independent phosphorylation of CAR-CD3ζ in CAR19.BBζ-T cells (CAR-CD3ζ phosphorylation; 200 μM phosphatase inhibitor, FIG. 2E): promoted

Compound: CC(C)(C)n1nc(-c2ccc(Cl)cc2)c2c(N)ncnc21 [PP2]
Responsiveness of CAR19.28ζ-T cells to CAR crosslinking (CD69, IFNγ and IL-2) after PP2 pretreatment ([3]; 10 μM PP2 for 16 hours, low doses of anti-CAR19 antibody, FIG. 2B): reduced their responsiveness to CAR crosslinking with low doses of anti-CAR19 antibody to similar levels of CAR19.BBζ-T cells
PP2-mediated inhibition in CAR19.28ζ-T cells at high doses of anti-CAR19 antibody ([3]; 10 μM PP2 pretreatment, high doses of anti-CAR19 antibody): partially overcame
CAR-CD3ζ basal phosphorylation of CAR19.28ζ-T cells on addition of kinase inhibitor (CAR-CD3ζ phosphorylation; inhibitor at 10 μM for 16 hours, FIG. 2A): abrogated

Compound: CD8α-wt: wild type CD8α
Basal CAR-CD3ζ phosphorylation in CD4+ T cells co-expressing CAR.19.BK (CAR-CD3ζ phosphorylation; co-expression of CD8α construct, FIG. 2D top): increased

Compound: LCK: full-length human LCK, FLAG-tagged, overexpressed in CAR-T cells
Ca2+ influx with LCK overexpression [4]: increasing; also recorded: correspondingly increased
CAR-CD3ζ phosphorylation in CAR19.28ζ-Ts with LCK overexpression (CAR-CD3ζ phosphorylation; FIG. 5): enhanced
Basal CAR-CD3ζ phosphorylation in CAR19.BBζ-T cells with LCK overexpression (CAR-CD3ζ phosphorylation; day 10 of in vitro expansion, three donors, FIG. 5): increasing; also recorded: dramatically increased CAR-CD3ζ phosphorylation of CAR19.BBζ to a comparable level as CAR19.28ζ
